# Data as given in patent US20260374809A1, “COMPOUNDS USEFUL FOR THE TREATMENT AND/OR CARE OF THE SKIN, HAIR, NAILS AND/OR MUCOUS MEMBRANES” (Lubrizol Advanced Materials, Inc., priority 2022, published 2026).
# Where a SMILES comes first, the peptide text is derived from it.
# How the values were obtained:
# [1] = tested on: Musclebind Like Protein 1 (MBNL1); assay: MBNL1 protein in human dermal fibroblasts (HDFa), immunofluorescence; format: cell-based; conditions: HDFa cells; for % Fold induction (FI) (MEAN ± SEM), MBNL1 intensity: 24 hours, basal control = 100; for % MME (MEAN ± SEM), comparative MBNL1 intensity with respect to electrical stimulation: MES = 100, control = 0
# Experimental: Musclebind Like Protein 1 (MBNL1) in Human Dermal Fibroblasts (HDF)
# The aim of this study was to evaluate the increase of MBNL1 protein in human skin fibroblasts after electrical stimulation, mimicking a microcurrent-like treatment. Topical products able to increase MBNL1 protein amount in fibroblast cells, in a similar way to the microcurrent-like treatment, could induce the same antiaging benefits on the skin avoiding the side-effects of physical microcurrent treatment
# Cells were seeded at 100.000 cells/well in 12-well plates over sterile glass slides and incubated at 37 °C, 5% CO2 for 48 hours. After that, electrical stimulation was performed. Glass slides were transferred to 6-well plates and were electro-stimulated (1.5V) for 1 hour using a C-dish device (IonOptix™) at room temperature. An identical 6-well plate with non-stimulated cells were incubated at room temperature for 1 hour. After electrostimulation, glass slides were transferred again to a 12-well plate and incubated at 37 °C, 5% CO2 for 24 hours. Three different replicates were used for each condition.
# Cells were seeded at 8.000 cells/well in 96-well plates and incubated at 37 °C, 5% CO2 for 48 hours. After the incubation time, cells were treated with PEP-1 (H-Leu-Pro-Val-Thr-OH) at 0.01 mg/ml, 0.1 mg/ml and 0.5 mg/ml for 24 hours. Cells incubated with medium alone were used as a control. Three replicates were carried out for each condition.
# After 24 hours of incubation, cells were washed two times with phosphate buffered saline (PBS), fixed with 4% PFA (paraformaldehyde solution) for 15 minutes and washed again two times. After that, cells were permeabilized with 1% X-Triton solution for 15 minutes and blocked with 5% bovine serum albumin (BSA) solution for 1 hour. Cells were incubated with 1/20 dilution of primary antibody against MBNL1 protein (Sigma) in 5% BSA solution for 2 hours. After the incubation time, cells were washed and incubated with 1/200 dilution of secondary antibody (AlexFluor™ 488) in 5% BSA solution for 1 hour. Finally, cells were washed 3 times and stained with 4′,6-Diamidine-2′-phenylindole dihydrochloride (DAPI) mount solution for nuclei detection. MBNL1 protein quantification were measured as fluorescence intensity of MBNL1 normalized by the number of nuclei for each condition using a confocal microscope (Operetta® confocal microscope, PerkinElmer Inc) using Alexa 488 Green channel (Ex: 460-490 nm/Em: 500-550 nm). Results are expressed as an MBNL1 level that is relative to that of the control condition.
# At least, three independent experiments were analyzed in this assay.
# Results were calculated using the following formula: […]
# For comparative purposes, the effect of the peptide was compared with that of MES. The effect was calculated as follows: […]
# [2] = tested on: Human dermal fibroblast (HDF); assay: Collagen contraction assay with human dermal fibroblasts in collagen gel; format: cell-based; conditions: 0.01 mg/ml, 24 h post detachment, without MES; basal control = 100.0, MES = 144.4
# Text: It is known that a remarkable change in the mechanical properties of the skin with aging is due to reduced contractile capacity as well as reduced migration activity of fibroblasts. Healthy fibroblasts induce contraction of the collagen network through physical interactions with collagen fibers. The collagen network is essential for maintaining the firmness of the skin. The collagen contraction assay is a well-known experimental approach to measuring the cell-induced contraction of the extracellular matrix. In this assay, the capacity of fibroblasts, embedded in a collagen-based gel, to reduce the gel diameter is evaluated.
# By improving the contractile forces, the mechanical tension can be improved, which can be associated to “lifting” effect at the scale of fibroblasts.
# The microcurrent system was built by coupling gold electrodes (in order to avoid medium oxidation leading to cell death when current goes through) to opposite sides of 60 mm Petri dishes (separated by 4 cm). When a voltage is applied, an electric field generates between opposite positive and negative poles and current passes through the culture. During the stimulation time (2 hours), each of the 60 mm Petri dishes is connected to a voltage source that allows regulating the amount of current that passes through each of them. For these experiments, a […] current (which corresponds to approx. 67 mV/mm) was used.
# Human dermal fibroblast (HDF) cell culture and expansion: Cells were thawed in T75 flasks and the growth medium was changed every 2 days of cell culture. After 7 days, cells were expanded to obtain a total amount of 7×10^6 cells to be used in the experiments.
# Once finished the expansion, cultures are trypsinized and seeded at 3×10^5 cells/60 mm Petri up to a total of 10 dishes per replicate. These ten dishes correspond to one experiment (Control/-MES vs+MES) at a specific concentration. Peptide treatment was performed at 0.01 mg/ml.
# After an overnight (O/N) incubation to allow cell attachment, each Petri dish is treated at the corresponding concentration with 4 ml of specific medium for a total of 24 hours in both conditions (without MES and with MES). Peptide treatment on the dishes that are not stimulated with microcurrent is initiated 2 hours in advance, and their passage into 3D cultures occurs at the same time as the microcurrent stimulation of the other dishes. […]
# Each 3D culture is prepared by mixing collagen solution with the culture medium corresponding to each of the conditions (without peptide or with peptide). […] Images of collagen gel diameter are taken of each well at 24 hours post detachment and analyzed by ImageJ. […]
# [formula] • An initial area is stablished. […] Area t=0 gel […]1.86 cm^2 (Area of a well in a 24-well plate) • Quantification of Area at t=x; Ax. […]
compound,measurement,setting,value
"CC(C)C[C@H](N)C(=O)N1CCC[C@H]1C(=O)N[C@H](C(=O)N[C@H](C(=O)O)[C@@H](C)O)C(C)C [PEP-1, H-Leu-Pro-Val-Thr-OH] (H-LPVT-OH)","% Fold induction (FI) (MEAN ± SEM), MBNL1 intensity",[1]; 0.01 mg/ml,106.66 ± 2.65%
same,"% MME (MEAN ± SEM), comparative MBNL1 intensity with respect to electrical stimulation",[1]; 0.01 mg/ml,52.73 ± 2.65%
same,"% Fold induction (FI) (MEAN ± SEM), MBNL1 intensity",[1]; 0.1 mg/ml,107.67 ± 1.62%
same,"% MME (MEAN ± SEM), comparative MBNL1 intensity with respect to electrical stimulation",[1]; 0.1 mg/ml,60.73 ± 1.62%
same,"% Fold induction (FI) (MEAN ± SEM), MBNL1 intensity",[1]; 0.5 mg/ml,109.46 ± 2.68%
same,"% MME (MEAN ± SEM), comparative MBNL1 intensity with respect to electrical stimulation",[1]; 0.5 mg/ml,74.90 ± 2.68%
same,"Collagen contraction, MEAN ± SEM",[2],137.5 ± 7.8%
